The experiment has as its system H9 cells. In words: qHTS for survival of dissociated H9 cells (CellTiter-Glo, 24 hours after seeding). The experiment is classed as cell-based, human. Conditions: for AC50: read-out: AC50 (concentration at 50% efficacy). The text has this: FIG. 2 schematically illustrates qHTS procedure.
All the screed compounds were received pre-plated at the pre-determined concentrations. […] Curve classification is explained in Huang et al. “Chemical genomics profiling of environmental chemical modulation of human nuclear receptors” Environ. Health. Perspect.

Setting [1] is: H9 cell survival normalized to 10 μM Y-27632 (taken to be 100%).
[2] abbreviates: H9 cell survival, CellTiter-Glo 24 hours after seeding.
The mark [3] stands for this setting: H9 cell survival, normalized to 10 μM Y-27632.
Setting [4] is: Homo sapiens, H9, 24 h, H9 cell survival normalized to 10 μM Y-27632 (taken to be 100%), read-out: Max (maximum activity value from all tested concentrations).
The mark [5] stands for this setting: Homo sapiens, H9, 24 h, H9 cell survival, normalized to 10 μM Y-27632, read-out: Efficacy (activity range between predicted activities at zero and infinite doses, Hill equation).
Setting [6] is: Homo sapiens, H9, 24 h, H9 cell survival, CellTiter-Glo 24 hours after seeding.

Several values for one entry are separate records, joined by “and”; a condition that tells them apart may be missing. Equal values may be shown once. Where a name gives a salt, the structure may show the parent alone. Read-outs that look alike come from different tables or passages of the source.

As to `C=C(NC(=O)C(=C)NC(=O)c1csc(C2=N[C@@H]3c4csc(n4)[C@H]4NC(=O)c5csc(n5)[C@H]([C@](C)(O)[C@@H](C)O)NC(=O)[C@H]5CSC(=N5)/C(=C/C)NC(=O)[C@H]([C@@H](C)O)NC(=O)c5csc(n5)[C@]3(CC2)NC(=O)[C@H](C)NC(=O)C(=C)NC(=O)[C@H](C)NC(=O)[C@H]([C@@H](C)CC)N[C@@H]2C=Cc3c([C@H](C)O)cc(nc3[C@H]2O)C(=O)O[C@@H]4C)n1)C(N)=O` [Thiostrepton from Streptomyces azureus, Thiostrepton], the AC50 (Homo sapiens, H9, 24 h) was found to be 14.7 µM. Besides, the Emax runs as follows: (Homo sapiens, H9, 24 h, read-out: Efficacy (activity range between predicted activities at zero and infinite doses, Hill equation)) 30.2%; (Homo sapiens, H9, 24 h, read-out: Max (maximum activity value from all tested concentrations)) 28.4%.

With `CN1CCN(c2cccc(Nc3nc4c(-c5ccc(S(C)(=O)=O)cc5)cccn4n3)c2)CC1` [CEP-33779], the “Max (maximum activity value from all tested concentrations)” value under setting [1] was found to be 27.79%. Besides, the AC50 under setting [2] worked out at 5.9 µM. In addition, the “Efficacy (activity range between predicted activities at zero and infinite doses, Hill equation)” value under setting [3] was 25.5.

Take `CNCCC(Oc1ccc(C(F)(F)F)cc1)c1ccccc1` (stereo not drawn) [Fluoxetine hydrochloride]: the Emax reads like this: under setting [4], 70.4%; under setting [5], 0%.

Consider `NC1(Cc2ccc(Cl)cc2)CCN(c2ncnc3[nH]ccc23)CC1` [CCT-128930], for which the “Max (maximum activity value from all tested concentrations)” value under setting [1] stood at 106.8%. The AC50 under setting [2] stood at 11.8 µM. For the same molecule, the “Efficacy (activity range between predicted activities at zero and infinite doses, Hill equation)” value under setting [3] was 133.

As for `O=C(c1ccc(/C=C/c2n[nH]c3ccccc23)cc1)N1CCNCC1` [KW-2449], the Emax under setting [4] turned out to be 40% and the Emax under setting [5] is 44.5%. In addition, the AC50 under setting [6] is 33.2 µM.

With `N#CCNC(=O)c1ccc(-c2ccnc(Nc3ccc(N4CCOCC4)cc3)n2)cc1` [Momelotinib], under setting [6], the AC50 came to 0.935 µM.

`CC(C)(C)c1nc2c3cc[nH]c(=O)c3c3cc(F)ccc3c2[nH]1` [Pyridone 6]: the “Max (maximum activity value from all tested concentrations)” value under setting [1] amounted to 28.9%. Under setting [3], the “Efficacy (activity range between predicted activities at zero and infinite doses, Hill equation)” value is on record as 0.

As to `CC1CNCCN1S(=O)(=O)c1cccc2cnccc12.Cl.Cl` (stereo not drawn) [1-(5-Isoquinolinylsulfonyl)-2-methylpipenvine dihydrochloride], the “Max (maximum activity value from all tested concentrations)” value under setting [1] came to 85.52%. The AC50 under setting [2] was 4.61 µM. Moreover, under setting [3], the “Efficacy (activity range between predicted activities at zero and infinite doses, Hill equation)” value is recorded as 92.2.

Regarding `Cl.Cl.O=S(=O)(NCCNC/C=C/c1ccc(Br)cc1)c1cccc2cnccc12` [H-89], the “Max (maximum activity value from all tested concentrations)” value under setting [1] is on record as 25.95%. In addition, the AC50 under setting [2] came out at 1.87 µM. The “Efficacy (activity range between predicted activities at zero and infinite doses, Hill equation)” value under setting [3] is listed as 16.9.

In the case of `CCn1c(-c2nonc2N)nc2cncc(CNC3CCNCC3)c21` [SB-747651-A], the “Max (maximum activity value from all tested concentrations)” value under setting [1] is 78.33% and 111.1%. Further, the “Efficacy (activity range between predicted activities at zero and infinite doses, Hill equation)” value under setting [3] is 35.5 and 68.7.

With `CC1(C)CC[C@]2(C(=O)O[C@@H]3O[C@H](CO[C@@H]4O[C@H](CO)[C@@H](O)[C@H](O)[C@H]4O[C@@H]4O[C@H](CO)[C@H](O)[C@H](O)[C@H]4O)[C@@H](O)[C@H](O[C@@H]4O[C@H](CO)[C@@H](O)[C@H](O)[C@H]4O)[C@H]3O)CC[C@]3(C)C(=CCC4[C@@]5(C)CC[C@H](O[C@@H]6OC[C@@H](O)[C@H](O)[C@H]6O)[C@@](C)(C(=O)O)C5CC[C@]43C)[C@@H]2C1` (stereo partly drawn) [NCGC00384798-01], under setting [1], the “Max (maximum activity value from all tested concentrations)” value amounted to 38.81%. In addition, the “Efficacy (activity range between predicted activities at zero and infinite doses, Hill equation)” value under setting [3] is 0.

Turning to `CN1CCN(c2nc(C3=C(c4c[nH]c5ccccc45)C(=O)NC3=O)c3ccccc3n2)CC1` [Sotrastaurin], the Emax is 35.9% under setting [4] and 36.5% under setting [5]. Besides, under setting [6], the AC50 amounted to 16.6 µM.

Turning to `CCCCC1C(=O)N(c2ccccc2)N(c2ccc(O)cc2)C1=O` (stereo not drawn) [OXYPHENBUTAZONE], the “Max (maximum activity value from all tested concentrations)” value under setting [1] came to 22.37%. For the same molecule, the AC50 under setting [2] was determined as 23.3 µM. Besides, the “Efficacy (activity range between predicted activities at zero and infinite doses, Hill equation)” value under setting [3] is given as 25.7.

For the molecule `CC1(C)[C@@H](O[C@H]2O[C@H](C(=O)O)[C@@H](O)[C@H](O)[C@H]2O[C@@H]2O[C@H](C(=O)O)[C@@H](O)[C@H](O)[C@H]2O)CC[C@]2(C)[C@H]3C(=O)C=C4[C@@H]5C[C@@](C)(C(=O)O)CC[C@]5(C)CC[C@@]4(C)[C@]3(C)CC[C@@H]12.N` [GLYCYRRHIZIC ACID. AMMONIUM SALT], under setting [1], the “Max (maximum activity value from all tested concentrations)” value was 23.95%. In addition, the AC50 under setting [2] worked out at 14.7 µM. For the same molecule, the “Efficacy (activity range between predicted activities at zero and infinite doses, Hill equation)” value under setting [3] is 26.

On to `O=C(Nc1ccc(-c2ccncc2)cc1)N[C@H](CO)c1ccccc1` [AS 1892802], for which the “Max (maximum activity value from all tested concentrations)” value under setting [1] is reported as 117.5%. Further, the AC50 under setting [2] stood at 1.31 µM. In addition, under setting [3], the “Efficacy (activity range between predicted activities at zero and infinite doses, Hill equation)” value was 115.

For the molecule `O=C(O)Cc1cc(I)c(Oc2cc(I)c(O)c(I)c2)c(I)c1` [TETRAC], the Emax under setting [4] was determined as 34.2% and the Emax under setting [5] is 35.8%. For the same molecule, under setting [6], the AC50 stood at 14.7 µM.

Take `O=c1[nH]c2ccc(Cl)cc2c(N[C@@H]2CN3CCC2CC3)c1-c1nc2ccccc2[nH]1` [CHIR-124]: the “Max (maximum activity value from all tested concentrations)” value under setting [1] was determined as 21.27%. In addition, the AC50 under setting [2] turned out to be 0.235 µM. The “Efficacy (activity range between predicted activities at zero and infinite doses, Hill equation)” value under setting [3] is listed as 12.4.

Consider `CC1=NN(c2ccccc2)C(=O)C1` [Edaravone], for which the Emax reads like this: under setting [4], 21%; under setting [5], 11%. In addition, the AC50 under setting [6] was found to be 0.521 µM.

As to `CNS(=O)(=O)C[C@H]1CC[C@H](N(C)c2ncnc3[nH]ccc23)CC1` [Oclacitinib (PF-03394197), Oclacitinib], the Emax is, setting by setting: under setting [4], 93.8%; under setting [5], 99.9%. Also, the AC50 under setting [6] is 20.8 µM.

For `CCCC1(C)C(C#N)(C#N)C1(C#N)C#N` [CCG-2046], the “Max (maximum activity value from all tested concentrations)” value under setting [1] came to 21.78%. The AC50 under setting [2] is 20.6 µM. In addition, the “Efficacy (activity range between predicted activities at zero and infinite doses, Hill equation)” value under setting [3] is given as 23.7.

`C=C1CC[C@@H]2[C@@](C)(CO[C@@H]3O[C@H](CO)[C@@H](O)[C@H](O)[C@H]3O)[C@H](O)CC[C@@]2(C)[C@@H]1CC/C(C)=C/CO[C@@H]1O[C@H](CO)[C@@H](O)[C@H](O)[C@H]1O` [NCGC00385284-01]: under setting [1], the “Max (maximum activity value from all tested concentrations)” value worked out at 26.38%. Also, under setting [2], the AC50 turned out to be 0.001 µM. For the same molecule, the “Efficacy (activity range between predicted activities at zero and infinite doses, Hill equation)” value under setting [3] is recorded as −31.2.

Take `CC(C)CCC(=O)CC1c2ccccc2C(=O)N1c1ccc2ccc(Cl)nc2n1` (single isomer, unassigned; (+)) [(+)-Pagoclone]: the “Max (maximum activity value from all tested concentrations)” value under setting [1] is recorded as 22.94%. Further, under setting [3], the “Efficacy (activity range between predicted activities at zero and infinite doses, Hill equation)” value was 0.

As for `O=S(=O)(c1cccc2cnccc12)N1CCNCC1` [HA-100], under setting [1], the “Max (maximum activity value from all tested concentrations)” value was 88.17%. For the same molecule, under setting [2], the AC50 was 7.31 µM. Besides, under setting [3], the “Efficacy (activity range between predicted activities at zero and infinite doses, Hill equation)” value is on record as 88.9.

As to `C[C@@H](N)c1ccc(C(=O)Nc2ccnc3[nH]ccc23)cc1` [Y-39983], the Emax under setting [4] came to 127% and the Emax under setting [5] was 121%.

Consider `CC(C)CC(=O)OC1OC=C(CO[C@@H]2O[C@H](CO)[C@@H](O)[C@H](O)[C@H]2O)C2CC(O)C(O)(CO)C12` (stereo partly drawn) [NCGC00347879-02], for which the “Max (maximum activity value from all tested concentrations)” value under setting [1] was 30.87%. Besides, the “Efficacy (activity range between predicted activities at zero and infinite doses, Hill equation)” value under setting [3] is on record as 0.

These data come from US20210348119A1, “COMPOSITIONS AND METHODS FOR CELL CULTURE” (The United States of America as Represented By The …, priority 2018, published 2021).
